Structures can show the parent of a compound that is named as a salt.
How the values were obtained:
[1] = system: synaptic ribbons in inner hair cells; assay: Ribbon synapse immunostaining and counting in cochlea, delayed treatment (Example 7); format: in vivo, male Wistar rats; details: for Number of pre-synaptic and post-synaptic elements (CtBP2 and Homer) per IHC / Number of colocalized ribbons per IHC: 25 kHz, vs traumatized vehicle and NaCl groups, 2 days and 9 days post-noise; for Number of colocalized ribbons per IHC: statistically significant for Paliroden; for Synapse loss in the inner hair cells (FIG. 8): regions coding high frequency sounds, printed 2 hours and 8 days post-noise
Procedure: At T+28 days, after DPOAE/ABR measures, 10 cochlea (all eight (8) left cochleae and two (2) right cochleae taken randomly) per group were rapidly sampled and immediately fixed by PFA perfusion (through the round and oval windows with PFA 4% after creating a small hole at the apex) in order to performed ribbon synapse immunostaining and analysis. Cochleae were fixed for 1 hour in a 4% PFA solution and decalcified in undiluted RDO (10 mL/cochlea for a minimum of 2 hours). The membranous and sensory spiral containing the organ of Corti are dissected out as a flat surface preparation under a dissecting microscope and immunolabelled with appropriate antibodies: • Vglut3 (Vglut3-Guinea Pig IgG; #135 204, Synaptic systems and Anti-Guinea Pig IgG (H+L), #A21450; Thermo Fisher Scientific 647 nm Far-Red) to stain inner hair cell bodies (vesicular glutamate transporter). • Homer (Homer-Rabbit IgG; #GTX103278; Genetex and Anti-Rabbit IgG (H+L) #A11008 Thermo Fisher Scientific 568 nm Red) to stain dendritic proteins of auditory nerve fibers connecting to IHC (post-synaptic). • CtBP2 (CtBP2-Mouse-IgG1; #612044; BD Transduction Laboratories and Anti-Mouse IgG1, #A21121, Thermo Fisher Scientific 488 Green) to stain the ribeye protein as pre-synaptic marker in IHC. • Phalloidin (Alexa Fluor™ Plus 405 Phalloidin; #A30104; Thermo Fisher Scientific 405 Blue).
Images were acquired on a confocal microscope and the slides were analyzed to i) evaluate by visual observation the presence of OHC and IHC (based on nuclei staining with CtBP2 and HC cell body staining with phalloidin) and ii) count the number of synaptic ribbons in selected inner hair cells in cochlea regions coding sound of selected frequency (16 kHz, 25 kHz and 32 kHz).
The number of pre- (CtBP2) and post-synaptic (Homer) labeled spots was counted using Imaris software in 3 dimensions for each image. Co-localization of pre- and post-synaptic elements was defined as a distance of maximum […] between CtBP2- and Homer-labeled spots, using an in-house Matlab program to calculate the distances between CtBP2 and Homer labels from the x, y, and z coordinates.

male Wistar rats = assay: ABR/DPOAE assessment, noise-induced permanent hearing loss, delayed trans-tympanic treatment (Example 7); format: in vivo; details: T0+28 days, versus traumatized animals untreated or vehicle; treatment 2 days and 9 days post-noise
Procedure: Forty male Wistar rats were selected and evenly distributed to treatment and control groups, each group comprising 8 rats at the end of the study. Randomization was performed using the ABR threshold in the left ear at 16 kHz as a criterium. The “sham” group consists in rats (n=8) that received neither noise exposure nor trans-tympanic injection. The “traumatized NaCl” group consists of rats (n=8) that received noise exposure only and trans-tympanic injections of a saline solution. The “traumatized vehicle” group consists in rats (n=8) that received noise exposure and trans-tympanic injections of placebo (a composition comprising Poloxamer 407 (7,2% w/w), Poloxamer 188 (8% w/w) and Cremophor EL® (20% w/w) in phosphate buffer pH=7.4, the percentages being expressed relative to the total weight of the composition). The “traumatized paliroden” group consists in rats (n=8) that received noise exposure and trans-tympanic injections of a composition comprising paliroden (fumarate salt), corresponding to composition 4P described in Example 2. The “traumatized xaliproden” group consists in rats (n=10) that received noise exposure and a trans-tympanic injection of a composition comprising xaliproden (hydrochloride salt), corresponding to composition 4X described in Example 2. […]

| Compound | Number of pre-synaptic and post-synaptic elements (CtBP2 and Homer) per IHC [1] | Number of colocalized ribbons per IHC [1] | Synapse loss in the inner hair cells (FIG. 8) [1] | Effect on ABR thresholds, DPOAE amplitudes, ABR Wave I amplitudes (male Wistar rats) |
| --- | --- | --- | --- | --- |
| FC(F)(F)c1cccc(C2=CCN(CCc3ccc(-c4ccccc4)cc3)CC2)c1 [paliroden (fumarate salt), 1-[2-(4-biphenylyl)ethyl]-4-(3-trifluoromethylphenyl)-1,2,3,6-tetrahydropyridine] | increase | increase | significantly repair synapse loss | did not show effect |
| FC(F)(F)c1cccc(C2=CCN(CCc3ccc4ccccc4c3)CC2)c1 [xaliproden (hydrochloride salt), 1-[2-(2-naphthyl)ethyl]-4-(3-trifluoromethylphenyl)-1,2,3,6-tetrahydropyridine] | increase | increase | significantly repair synapse loss | did not show effect |

From US20230390273A1, “4-PHENYL-TETRAHYDROPYRIDINE DERIVATIVES FOR TREATING HEARING DISEASES” (CILCARE DEV, priority 2021, published 2023)
